Laboratory results as given in US6355799B1, “Substituted benzene compounds, process for their preparation, and herbicidal and defoliant compositions containing them” (ISK Americas Incorporated, priority 1997, dated 2002).

Legend:
Type in all cases: in vivo
[1] = system: redroot pigweed (Amaranthus retroflexus, AMARE); experiment: Pre-emerge test, greenhouse herbicide activity screening; details: pre-emerge, phytotoxicity rating 0-100 at 14 days after application
Outline: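 Compounds in acetone were track-sprayed at 187 l/ha, 15–1000 g ai/ha, onto sandy loam pots. Pre-emerge seeds were sown one day before spraying, with surface watering afterwards. Post-emerge plants were at the 2–3 leaf stage and sprayed with 0.25% v/v non-ionic surfactant. Injury was rated 0–100 at 14 days.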

[2] = system: barnyardgrass (Echinochloa crus-galli, ECHCG); experiment: as above; details: pre-emerge, phytotoxicity rating 0-100 at 14 days after application
Outline: (§1)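 Applied at 15–1000 g ai/ha from acetone in 187 l/ha spray volume. Post-emergence applications included 0.25% v/v non-ionic surfactant and reached plants sown 8–21 days before. Pre-emergence applications were incorporated by surface watering. Efficacy or crop damage was rated on a 0–100 scale after 14 days.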

[3] = system: green foxtail (Setaria viridis, SETVI); experiment: as above; details: pre-emerge, phytotoxicity rating 0-100 at 14 days after application
Outline: as §1

[4] = system: ivyleaf morningglory (Ipomoea hederacea, IPOHE); experiment: as above; details: pre-emerge, phytotoxicity rating 0-100 at 14 days after application
Outline: as §1

[5] = system: johnsongrass (Sorghum halepense, SORHA); experiment: as above; details: pre-emerge, phytotoxicity rating 0-100 at 14 days after application
Outline: as §1

[6] = system: lambsquarters (Chenopodium album, CHEAL); experiment: as above; details: pre-emerge, phytotoxicity rating 0-100 at 14 days after application
Outline: as §1

[7] = system: large crabgrass (Digitaria sanguinalis, DIGSA); experiment: as above; details: pre-emerge, phytotoxicity rating 0-100 at 14 days after application
Outline: as §1

[8] = system: sicklepod (Cassia obtusifolia, CASOB); experiment: as above; details: pre-emerge, phytotoxicity rating 0-100 at 14 days after application
Outline: as §1

[9] = system: velvetleaf (Abutilon theophrasti, ABUTH); experiment: as above; details: pre-emerge, phytotoxicity rating 0-100 at 14 days after application
Outline: as §1

[10] = system: field corn (Zea mays L., var. Dekalb 535, CORN); experiment: Pre-emerge test, crop safety; details: crop damage, pre-emerge, phytotoxicity rating 0-100 at 14 days after application
Outline: as §1

[11] = system: upland rice (Oryza sp., var. Tebonnet, RICE); experiment: Pre-emerge test, crop safety; details: crop damage, pre-emerge, phytotoxicity rating 0-100 at 14 days after application
Outline: as §1

[12] = system: barnyardgrass (Echinochloa crus-galli, ECHCG); experiment: Post-emerge test, greenhouse herbicide activity screening; details: post-emerge, phytotoxicity rating 0-100 at 14 days after application
Outline: (§2)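 Fourteen days after spraying, crop and weed injury was graded visually from 0, no effect, to 100, every plant dead. Test substances were dissolved in acetone and applied at 15–1000 g ai/ha with a flat-fan nozzle. Application was either pre-emergence, one day after sowing, or post-emergence at the 2–3 leaf stage.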

[13] = system: common ragweed (Ambrosia artemisizfolia L., AMBEL); experiment: as above; details: post-emerge, phytotoxicity rating 0-100 at 14 days after application
Outline: as §2

[14] = system: green foxtail (Setaria viridis, SETVI); experiment: as above; details: post-emerge, phytotoxicity rating 0-100 at 14 days after application
Outline: as §2

[15] = system: ivyleaf morningglory (Ipomoea hederacea, IPOHE); experiment: as above; details: post-emerge, phytotoxicity rating 0-100 at 14 days after application
Outline: as §2

[16] = system: johnsongrass (Sorghum halepense, SORHA); experiment: as above; details: post-emerge, phytotoxicity rating 0-100 at 14 days after application
Outline: as §2

[17] = system: lambsquarters (Chenopodium album, CHEAL); experiment: as above; details: post-emerge, phytotoxicity rating 0-100 at 14 days after application
Outline: as §2

[18] = system: large crabgrass (Digitaria sanguinalis, DIGSA); experiment: as above; details: post-emerge, phytotoxicity rating 0-100 at 14 days after application
Outline: as §2

[19] = system: redroot pigweed (Amaranthus retroflexus, AMARE); experiment: as above; details: post-emerge, phytotoxicity rating 0-100 at 14 days after application
Outline: as §2

[20] = system: sicklepod (Cassia obtusifolia, CASOB); experiment: as above; details: post-emerge, phytotoxicity rating 0-100 at 14 days after application
Outline: as §2

[21] = system: velvetleaf (Abutilon theophrasti, ABUTH); experiment: as above; details: post-emerge, phytotoxicity rating 0-100 at 14 days after application
Outline: as §2

[22] = system: field corn (Zea mays L., var. Dekalb 535, CORN); experiment: Post-emerge test, crop safety; details: post-emerge, crop damage rating 0-100 at 14 days after application
Outline: as §1

[23] = system: upland rice (Oryza sp., var. Tebonnet, RICE); experiment: Post-emerge test, crop safety; details: post-emerge, crop damage rating 0-100 at 14 days after application
Outline: as §1

COc1c(Cl)cc(F)c(-n2ncc(C(F)(F)F)cc2=O)c1NC(=O)c1ccc2ccccc2c1 [Compound 11-6, 2-(4-chloro-6-fluoro-3-methoxy-2-naphthoylamidophenyl)-5-trifluoromethylpyridazin-3-one]
80: Pre-emerge Herbicidal Activity IPOHE ([4]; rate 250 g ai/ha) | Post-emerge Herbicidal Activity ECHCG ([12]; 250 g ai/ha) | Post-emerge Herbicidal Activity CHEAL ([17]; 63 g ai/ha)
40: Pre-emerge Herbicidal Activity SORHA ([5]; rate 250 g ai/ha)
100: Pre-emerge Herbicidal Activity AMARE ([1]; rate 63 g ai/ha) | Pre-emerge Herbicidal Activity AMARE ([1]; rate 250 g ai/ha) | Pre-emerge Herbicidal Activity ECHCG ([2]; rate 250 g ai/ha) | Pre-emerge Herbicidal Activity SETVI ([3]; rate 63 g ai/ha) | Pre-emerge Herbicidal Activity SETVI ([3]; rate 250 g ai/ha) | Pre-emerge Herbicidal Activity CHEAL ([6]; rate 63 g ai/ha) | Pre-emerge Herbicidal Activity CHEAL ([6]; rate 250 g ai/ha) | Pre-emerge Herbicidal Activity DIGSA ([7]; rate 63 g ai/ha) | Pre-emerge Herbicidal Activity DIGSA ([7]; rate 250 g ai/ha) | Pre-emerge Herbicidal Activity ABUTH ([9]; rate 250 g ai/ha) | Post-emerge Herbicidal Activity AMBEL ([13]; 63 g ai/ha) | Post-emerge Herbicidal Activity AMBEL ([13]; 250 g ai/ha) | Post-emerge Herbicidal Activity IPOHE ([15]; 250 g ai/ha) | Post-emerge Herbicidal Activity CHEAL ([17]; 250 g ai/ha) | Post-emerge Herbicidal Activity AMARE ([19]; 63 g ai/ha) | Post-emerge Herbicidal Activity AMARE ([19]; 250 g ai/ha) | Post-emerge Herbicidal Activity CASOB ([20]; 63 g ai/ha) | Post-emerge Herbicidal Activity CASOB ([20]; 250 g ai/ha) | Post-emerge Herbicidal Activity ABUTH ([21]; 63 g ai/ha) | Post-emerge Herbicidal Activity ABUTH ([21]; 250 g ai/ha)
70: Post-emerge Herbicidal Activity IPOHE ([15]; 63 g ai/ha)
99: Pre-emerge Herbicidal Activity CASOB ([8]; rate 250 g ai/ha)
95: Pre-emerge Herbicidal Activity ABUTH ([9]; rate 63 g ai/ha)
20: Pre-emerge Herbicidal Activity CASOB ([8]; rate 63 g ai/ha) | Pre-emerge Herbicidal Activity CORN ([10]; rate 250 g ai/ha) | Post-emerge Herbicidal Activity CORN ([22]; 250 g ai/ha) | Post-emerge Herbicidal Activity RICE ([23]; 63 g ai/ha)
10: Post-emerge Herbicidal Activity SETVI ([14]; 63 g ai/ha)
60: Post-emerge Herbicidal Activity RICE ([23]; 250 g ai/ha)
0: Pre-emerge Herbicidal Activity IPOHE ([4]; rate 63 g ai/ha) | Pre-emerge Herbicidal Activity SORHA ([5]; rate 63 g ai/ha) | Pre-emerge Herbicidal Activity CORN ([10]; rate 63 g ai/ha) | Pre-emerge Herbicidal Activity RICE ([11]; rate 63 g ai/ha) | Post-emerge Herbicidal Activity SORHA ([16]; 63 g ai/ha) | Post-emerge Herbicidal Activity SORHA ([16]; 250 g ai/ha) | Post-emerge Herbicidal Activity DIGSA ([18]; 63 g ai/ha) | Post-emerge Herbicidal Activity DIGSA ([18]; 250 g ai/ha) | Post-emerge Herbicidal Activity CORN ([22]; 63 g ai/ha)
90: Pre-emerge Herbicidal Activity ECHCG ([2]; rate 63 g ai/ha)
50: Pre-emerge Herbicidal Activity RICE ([11]; rate 250 g ai/ha) | Post-emerge Herbicidal Activity ECHCG ([12]; 63 g ai/ha) | Post-emerge Herbicidal Activity SETVI ([14]; 250 g ai/ha)
